# According to article PMC12467068, “Design, Synthesis, and Computational Insights into PKMYT1 Inhibitors for the Treatment of Breast Cancer” (Biomedicines, 2025):
# Entries after “also recorded” stand apart in the source; their conditions may differ.
# Legend:
# PKMYT1 = target: T1, PKMYT1 (Homo sapiens, UniProt Q99640); assay: PKMYT1 enzyme inhibition assay (LanthaScreen Eu kinase binding method); conditions: mean of two separate experiments
# T1 sequence (Q99640 1-499): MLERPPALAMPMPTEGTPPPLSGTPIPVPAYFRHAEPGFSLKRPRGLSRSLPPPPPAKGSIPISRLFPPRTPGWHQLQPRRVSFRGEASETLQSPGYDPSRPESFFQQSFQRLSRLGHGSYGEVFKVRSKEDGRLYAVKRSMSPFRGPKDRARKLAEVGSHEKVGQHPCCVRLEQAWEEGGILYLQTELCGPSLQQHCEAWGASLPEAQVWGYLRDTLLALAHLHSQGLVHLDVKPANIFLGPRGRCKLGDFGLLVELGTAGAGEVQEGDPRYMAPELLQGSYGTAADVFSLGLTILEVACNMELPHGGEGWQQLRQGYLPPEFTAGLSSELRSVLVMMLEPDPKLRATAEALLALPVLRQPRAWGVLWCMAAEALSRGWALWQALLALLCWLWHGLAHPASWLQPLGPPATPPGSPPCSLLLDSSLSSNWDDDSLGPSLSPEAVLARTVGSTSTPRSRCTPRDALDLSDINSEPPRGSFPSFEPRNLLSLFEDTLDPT
# Protocol: The PKMYT1 kinase assay was conducted with the LanthaScreen™ Eu kinase binding method, as provided by Thermo Fisher Scientific (Waltham, MA, USA). Initially, compounds were prepared at a concentration of 4 mM in DMSO and subsequently diluted to various concentrations in 1X buffer. […] The plate was then incubated in the dark at 25 °C for 1 h, and fluorescence signals were recorded at 665 nm and 615 nm.
# HCC1569 cells [1] = assay: Cell proliferation assay (CCK-8), HCC1569; format: cell-based; conditions: CCNE1-amplified breast cancer cells, 5-day incubation, mean ± SD, n = 3
# Protocol: (§1) HCC1569 and OVCAR3 cells (2 × 10^3/well) were seeded in 96-well plates and cultured for 24 h at 37 °C, 5% CO2. Compounds at varying concentrations were added, followed by 5-day incubation. Cell viability was assessed using Cell Counting Kit-8 (CCK-8) with absorbance measurement at 450 nm. HCC1569 (BNCC341698) was purchased from BNCC and OVCAR3 (CL-0178) was purchased from Procell.
# OVCAR3 cells [2] = assay: Cell proliferation assay (CCK-8), OVCAR3; format: cell-based; conditions: CCNE1-amplified ovarian cancer cells, 5-day incubation, mean ± SD, n = 3
# Protocol: as §1
# A549 cells = assay: Anti-proliferative activity in low-expressing CCNE1 cells A549; format: cell-based
# BEAS-2B cells = assay: Anti-proliferative activity in normal lung epithelial cells BEAS-2B; format: cell-based
# OVCAR3 cells [3] = assay: Cell cloning (colony formation) assay; format: cell-based; conditions: OVCAR3, 14 days of incubation, varying concentrations
# Protocol: OVCAR3 cells (4 × 10^3/well) were seeded into 6-well plates and incubated for 24 h at 37 °C in a 5% CO2 atmosphere. Compound MY-14 was then added at varying concentrations, followed by a 14-day incubation period. Subsequently, cells were fixed with a 4% paraformaldehyde solution and stained using crystal violet solution, after which colonies were quantified using ImageJ 1.54 software.
# HCC1569 cells [4] = assay: Cell apoptosis assay (Annexin V-FITC/PI flow cytometry); format: cell-based; parameters: Q1 / Q2 / Q3 / Q4: unit not given here
# Protocol: HCC1569 cells (1 × 10^5/well) were seeded in 6-well plates and cultured for 24 h at 37 °C, 5% CO2. MY-14 at varying concentrations were added, followed by 5-day incubation. Cells were trypsinized and pelleted by centrifugation. Subsequent analysis was performed per the Medilunbio kit protocol: staining was conducted with propidium iodide (PI) and Annexin V-FITC. After 15 min incubation, samples were analyzed by flow cytometry.
# HCC1569 cells [5] = assay: Cell cycle assay (PI flow cytometry); format: cell-based
# Protocol: HCC1569 cells (1 × 10^5/well) were seeded in 6-well plates and cultured for 24 h at 37 °C under 5% CO2. MY-14 at varying concentrations were added, followed by 5-day incubation. Cells were trypsinized, pelleted by centrifugation, and fixed with 70% ethanol. Subsequent staining was performed with propidium iodide (PI) and RNase A according to the Beyotime kit protocol. After 30 min incubation at 37 °C, samples were analyzed by flow cytometry.
compound,measurement,setting,value
CCOP(=O)(OCC)c1ccc(Nc2ncc(C(=O)Nc3c(C)ccc(O)c3C)c(N)n2)cc1 [MY-14],IC50,PKMYT1,2.6 nM
same,IC50,HCC1569 cells [1],1060 ± 180 nM
same,IC50,"HCC1569 cells [1]; Homo sapiens, HCC1569, 120 h",1020 nM
same,IC50,OVCAR3 cells [2],800 ± 70 nM
same,IC50,"OVCAR3 cells [2]; Homo sapiens, OVCAR-3, 120 h",820 nM
same,cytotoxicity (in words),"A549 cells; A549, CCNE1-low",did not exhibit cytotoxicity; also recorded: reduced cytotoxicity
same,IC50,"A549 cells; Homo sapiens, A549, lung cancer cells, low CCNE1 expression, mean ± SD, n = 3",> 8000 nM
same,cytotoxicity (in words),BEAS-2B cells; BEAS-2B lung epithelial cells,did not exhibit cytotoxicity; also recorded: reduced cytotoxicity
same,IC50,"BEAS-2B cells; Homo sapiens, BEAS-2B, lung epithelial cells, mean ± SD, n = 3",> 8000 nM
same,colony formation (in words),OVCAR3 cells [3],inhibited colony formation in a dose-dependent manner
same,apoptosis induction (in words),HCC1569 cells [4]; HCC1569,induced apoptosis in a concentration-dependent manner; also recorded: induced apoptosis-mediated cell death
same,Q1,"HCC1569 cells [4]; HCC1569, 0.5 μM",4.66
same,Q2,"HCC1569 cells [4]; HCC1569, 0.5 μM",0.51
same,Q3,"HCC1569 cells [4]; HCC1569, 0.5 μM",18.6
same,Q4,"HCC1569 cells [4]; HCC1569, 0.5 μM",76.2
same,Q1,"HCC1569 cells [4]; HCC1569, 1.0 μM",3.91
same,Q2,"HCC1569 cells [4]; HCC1569, 1.0 μM",0.20
same,Q3,"HCC1569 cells [4]; HCC1569, 1.0 μM",21.2
same,Q4,"HCC1569 cells [4]; HCC1569, 1.0 μM",74.7
same,Q1,"HCC1569 cells [4]; HCC1569, 2.0 μM",4.24
same,Q2,"HCC1569 cells [4]; HCC1569, 2.0 μM",1.07
same,Q3,"HCC1569 cells [4]; HCC1569, 2.0 μM",40.4
same,Q4,"HCC1569 cells [4]; HCC1569, 2.0 μM",54.3
same,Q1,"HCC1569 cells [4]; HCC1569, 4.0 μM",4.11
same,Q2,"HCC1569 cells [4]; HCC1569, 4.0 μM",1.14
same,Q3,"HCC1569 cells [4]; HCC1569, 4.0 μM",46.3
same,Q4,"HCC1569 cells [4]; HCC1569, 4.0 μM",48.5
same,maximal apoptotic rate,"HCC1569 cells [4]; HCC1569, 5-day incubation",47.44%
same,cell-cycle arrest (in words),HCC1569 cells [5],arrested cell-cycle progression at the S-phase; also recorded: G1/S phase cell-cycle arrest
same,distribution of G2/M-phase cells (in words),HCC1569 cells [5],no significant impact
same,proportion of G1-phase cells (in words),HCC1569 cells [5],reducing the proportion of G1-phase cells
same,proportion of S-phase cells (in words),HCC1569 cells [5],concentration-dependent increase in the proportion of S-phase cells
